According to patent US9447083B2, “N-acylhydrazone derivatives for selective T cell inhibitor and anti-lymphoid malignancy drug” (CHONG KUN DANG PHARMACEUTICAL CORP., priority 2012, dated 2016):

What follows are compounds tested on Jurkat T cells (assay: Pro-apoptotic activity on Jurkat T cells (FITC-Annexin V / 7-AAD flow cytometry)). Conditions: Homo sapiens, 72 hours, cells stained with FITC-Annexin V and 7-AAD among total cells, read-out: Jurkat T Cell Apoptosis (% in 5 μM).
Format: cell-based
Experimental: In order to investigate the effects of the prepared compounds, the apoptosis-inducing effects of the compounds on human T cell acute lymphoblastic leukemia cell line, Jurkat T cells, were evaluated in the following manner.
Jurkat T cells cultured in RPMI medium containing 10% fetal bovine serum (FBS) were collected and stained with trypan blue (Sigma). […] Then, the cells were centrifuged at 1200 rpm at room temperature for 5 minutes and re-suspended in 10% FBS-containing RPMI medium at a concentration of 1.5×10^5 cells/mL. 200 μL of the cell suspension was dispensed into each well of a flat bottom 96-well plate (Costar). Then, the cells were treated with 10 μL of the diluted compounds in RPMI medium at final concentrations of […] or 5 μM, and incubated in a 5% CO2 incubator at 37° C. for 72 hours. In a vehicle control group, the cells were treated with 10 μL of RPMI medium containing 1% of dimetylsulfoxide (DMSO, Sigma). The incubated cells were harvested, put into 5-mL FACS tubes (BD Falcon), washed with 1 mL of phosphate buffered saline (PBS), and then re-suspended in 0.1 mL of binding buffer (10 mM Hepes-NaOH, pH 7.4, 140 mM NaCl, […] CaCl2). The suspended cells were stained with fluorescein isothiocyanate (FITC)-Annexin V (BD Biosciences) and 7-amino-actinomycin D (7-AAD, e-Biosciences) at room temperature for 15 minutes. The stained cells were suspended in 0.3 mL of binding buffer and analyzed by a flow cytometer. Apoptosis was determined by the ratio (%) of cells stained with FITC-Annexin V and 7-AAD among the total cells (see Tables 10 and 11).
In the case of `O=C(COc1cccnc1-c1ccoc1)N/N=C/c1ccc2cc[nH]c2c1` [Compound 310, (E)-N′-((1H-indol-6-yl)methylene)-2-(2-(furan-3-yl)pyridin-3-yloxy)acetohydrazide], the cytotoxicity at 5 µM is reported as 100%. `Cc1cccc(C2CCOC2)c1OCC(=O)N/N=C/c1ccc2cc[nH]c2c1` (centres unmarked) [Compound 311, (E)-N′-((1H-indol-6-yl)methylene)-2-(2-methyl-6-(tetrahydrofuran-3-yl)phenoxy)acetohydrazide] gave a cytotoxicity at 5 µM of 100%. Work on `Cc1cccc(C2CCOC2)c1OCC(=O)N/N=C/c1cccc2[nH]ccc12` (centres unmarked) [Compound 312, (E)-N′-((1H-indol-4-yl)methylene)-2-(2-methyl-6-(tetrahydrofuran-3-yl)phenoxy)acetohydrazide] yielded a cytotoxicity at 5 µM of 100%. `Cc1cccc(-c2ccoc2)c1OCC(=O)N/N=C/c1ccc2cc[nH]c2c1` [Compound 313, (E)-N′-((1H-indol-6-yl)methylene)-2-(2-(furan-3-yl)-6-methylphenoxy)acetohydrazide] was tested, and the cytotoxicity at 5 µM was 100%. `Cc1cccc(-c2ccoc2)c1OCC(=O)N/N=C/c1cccc2[nH]ccc12` [Compound 314, (E)-N′-((1H-indol-4-yl)methylene)-2-(2-(furan-3-yl)-6-methylphenoxy)acetohydrazide] gave a cytotoxicity at 5 µM of 100%. Work on `Cc1cc(C)c(OCC(=O)N/N=C/c2cccc3[nH]ccc23)c(-c2ccco2)c1` [Compound 317, (E)-N′-((1H-indol-4-yl)methylene)-2-(2-(furan-2-yl)-4,6-dimethylphenoxy)acetohydrazide] yielded a cytotoxicity at 5 µM of 100%. For `Cc1cc(C)c(OCC(=O)N/N=C/c2ccc3cc[nH]c3c2)c(-c2ccco2)c1` [Compound 318], the cytotoxicity at 5 µM was 100%. `O=C(COc1cccnc1-c1ccoc1)N/N=C/c1cccc2[nH]ccc12` [Compound 319, (E)-N′-((1H-indol-4-yl)methylene)-2-((2-(furan-3-yl)pyridin-3-yl)oxy)acetohydrazide] was tested, and the cytotoxicity at 5 µM was 100%. `Cc1cc(C)c(OCC(=O)N/N=C/c2cccc3[nH]ccc23)c(C2CCOC2)c1` (centres unmarked) [Compound 320, (E)-N′-((1H-indol-4-yl)methylene)-2-(2,4-dimethyl-6-(tetrahydrofuran-3-yl)phenoxy)acetohydrazide] gave a cytotoxicity at 5 µM of 100%. `Cc1cc(-c2ccoc2)cc(C)c1OCC(=O)N/N=C/c1ccc2cc[nH]c2c1` [Compound 322, (E)-N′-((1H-indol-6-yl)methylene)-2-(4-(furan-3-yl)-2,6-dimethylphenoxy)acetohydrazide] showed a cytotoxicity at 5 µM of 100%. For `Cc1cc(C2CCOC2)cc(C)c1OCC(=O)N/N=C/c1ccc2cc[nH]c2c1` (centres unmarked) [Compound 323, (E)-N′-((1H-indol-6-yl)methylene)-2-(2,6-dimethyl-4-(tetrahydrofuran-3-yl)phenoxy)acetohydrazide], the cytotoxicity at 5 µM was 100%. Work on `Cc1cccc(OCC(=O)N/N=C/c2cccc3[nH]ccc23)c1C` [Compound 326, (E)-N′-((1H-indol-4-yl)methylene)-2-(2,3-dimethylphenoxy)acetohydrazide] yielded a cytotoxicity at 5 µM of 95%. `Cc1cccc(OCC(=O)N/N=C/c2ccc3cc[nH]c3c2)c1C` [Compound 327] showed a cytotoxicity at 5 µM of 95%. Work on `CCc1nc(C)ccc1OCC(=O)N/N=C/c1cccc2[nH]ccc12` [Compound 329, (E)-N′-((1H-indol-4-yl)methylene)-2-((2-ethyl-6-methylpyridin-3-yl)oxy)acetohydrazide] yielded a cytotoxicity at 5 µM of 100%. `N#Cc1cc(Br)ccc1OCC(=O)N/N=C/c1cccc2[nH]ccc12` [Compound 330, (E)-N′-((1H-indol-4-yl)methylene)-2-(4-bromo-2-cyanophenoxy)acetohydrazide] was tested, and the cytotoxicity at 5 µM was 80%. `O=C(COc1cccnc1N1CCCC1)N/N=C/c1ccc2cc[nH]c2c1` [Compound 331, (E)-N′-((1H-indol-6-yl)methylene)-2-((2-(pyrrolidin-1-yl)pyridin-3-yl)oxy)acetohydrazide] gave a cytotoxicity at 5 µM of 100%. `Cc1cc(C)c(OCC(=O)N/N=C/c2ccc3cc[nH]c3c2)c(C2CCCO2)c1` (centres unmarked) [Compound 332, (E)-N′-((1H-indol-6-yl)methylene)-2-(2,4-dimethyl-6-(tetrahydrofuran-2-yl)phenoxy)acetohydrazide] gave a cytotoxicity at 5 µM of 100%. Compound `Cc1cc(C)c(OCC(=O)N/N=C/c2cccc3[nH]ccc23)c(-c2ccoc2)c1` [Compound 333, (E)-N′-((1H-indol-4-yl)methylene)-2-(2-(furan-3-yl)-4,6-dimethylphenoxy)acetohydrazide] has a cytotoxicity at 5 µM of 100%. With `Cc1cc(-c2ccoc2)cc(C)c1OCC(=O)N/N=C/c1cccc2[nH]ccc12` [Compound 336, (E)-N′-((1H-indol-4-yl)methylene)-2-(4-(furan-3-yl)-2,6-dimethylphenoxy)acetohydrazide] the cytotoxicity at 5 µM was 100%. Work on `Cc1cc(C2CCOC2)cc(C)c1OCC(=O)N/N=C/c1cccc2[nH]ccc12` (centres unmarked) [Compound 337, (E)-N′-((1H-indol-4-yl)methylene)-2-(2,6-dimethyl-4-(tetrahydrofuran-3-yl)phenoxy)acetohydrazide] yielded a cytotoxicity at 5 µM of 100%. Work on `O=C(COc1cccnc1-c1ccsc1)N/N=C/c1ccc2cc[nH]c2c1` [Compound 343, (E)-N′-((1H-indol-6-yl)methylene)-2-((2-(thiophen-3-yl)pyridin-3-yl)oxy)acetohydrazide] yielded a cytotoxicity at 5 µM of 100%. `Cc1cc(C)c(OCC(=O)N/N=C/c2cccc3[nH]ccc23)c(-c2cccs2)c1` [Compound 344, (E)-N′-((1H-indol-4-yl)methylene)-2-(2,4-dimethyl-6-(thiophen-2-yl)phenoxy)acetohydrazide] was tested, and the cytotoxicity at 5 µM was 100%. `Cc1cc(C)c(OCC(=O)N/N=C/c2ccc3cc[nH]c3c2)c(-c2cccs2)c1` [Compound 345] gave a cytotoxicity at 5 µM of 95%. For `COc1ccc(OCC(=O)N/N=C/c2cccc3[nH]ccc23)c(-c2ccco2)c1` [Compound 346, (E)-N′-((1H-indol-4-yl)methylene)-2-(2-(furan-2-yl)-4-methoxyphenoxy)acetohydrazide], the cytotoxicity at 5 µM was 100%. With `COc1ccc(OCC(=O)N/N=C/c2ccc3cc[nH]c3c2)c(-c2ccco2)c1` [Compound 347] the cytotoxicity at 5 µM was 100%. Compound `O=C(COc1cccc(-c2ccco2)c1)N/N=C/c1cccc2[nH]ccc12` [Compound 356, (E)-N′-((1H-indol-4-yl)methylene)-2-(3-(furan-2-yl)phenoxy)acetohydrazide] has a cytotoxicity at 5 µM of 90%. With `O=C(COc1cccc(-c2cccnc2)c1)N/N=C/c1cccc2[nH]ccc12` [Compound 358, (E)-N′-((1H-indol-4-yl)methylene)-2-(3-(pyridin-3-yl)phenoxy)acetohydrazide] the cytotoxicity at 5 µM was 100%. `O=C(COc1cccc(-c2cccnc2)c1)N/N=C/c1ccc2cc[nH]c2c1` [Compound 359] was tested, and the cytotoxicity at 5 µM was 80%. For `Cc1cc(C)c(OCC(=O)N(C)/N=C/c2ccc3ccn(C)c3c2)c(C2CCOC2)c1` (centres unmarked) [Compound 375, (E)-2-(2,4-dimethyl-6-(tetrahydrofuran-3-yl)phenoxy)-N-methyl-N′-((1-methyl-1H-indol-6-yl)methylene)acetohydrazide], the cytotoxicity at 5 µM was 100%. With `Cc1cc(F)cc(C2CCOC2)c1OCC(=O)N/N=C/c1ccc2cc[nH]c2c1` (centres unmarked) [Compound 378, (E)-N′-((1H-indol-6-yl)methylene)-2-(4-fluoro-2-methyl-6-(tetrahydrofuran-3-yl)phenoxy)acetohydrazide] the cytotoxicity at 5 µM was 100%. In the case of `Cc1cc(F)cc(C2CCOC2)c1OCC(=O)N/N=C/c1cccc2[nH]ccc12` (centres unmarked) [Compound 379, (E)-N′-((1H-indol-4-yl)methylene)-2-(4-fluoro-2-methyl-6-(tetrahydrofuran-3-yl)phenoxy)acetohydrazide], the cytotoxicity at 5 µM is reported as 100%. `Cc1cc(F)cc(C2CCOC2)c1OCC(=O)N(C)/N=C/c1ccc2ccn(C)c2c1` (centres unmarked) [Compound 380, (E)-2-(4-fluoro-2-methyl-6-(tetrahydrofuran-3-yl)phenoxy)-N-methyl-N′-((1-methyl-1H-indol-6-yl)methylene)acetohydrazide] showed a cytotoxicity at 5 µM of 100%.
